Key:
Test in all cases: Post-emergence weed control test (greenhouse pot, spray)
Format in all cases: in vivo
[1] = tested on: Amaranthus retroflexus; conditions: 3000 g/ha, 3 weeks after spraying
Source text: (§1) The activity level standard of harmful plant destruction (i.e. growth inhibition rate) is as follows: • Level 10: completely dead; • Level 9: above 90% growth inhibition rate; • Level 8: above 80% growth inhibition rate; • Level 7: above 70% growth inhibition rate; • Level 6: above 60% growth inhibition rate; • Level 5: above 50% growth inhibition rate; • Level 4: above 40% growth inhibition rate; • Level 3: above 30% growth inhibition rate; • Level 2: above 20% growth inhibition rate; • Level 1: below 20% growth inhibition rate; • Level 0: no effect.
(§2) The above described growth inhibition rates are fresh weight inhibition rates.
(§3) Experiment of post-emergence test: monocotyledonous and dicotyledonous weed seeds as well as main crop seeds (i.e., wheat, corn, rice, soybean, cotton, oilseed rape, millet and sorghum) were put into a plastic pot loaded with soil, then covered with 0.5-2 cm of soil, and the seeds were allowed to grow in good greenhouse environment. The test plants were treated at 4-5 leaf stage 2-3 weeks after sowing. The test compounds of the invention were dissolved in acetone respectively, then added with Tween-80 and diluted by a certain amount of water to give solutions with certain concentrations. The solution was sprayed to the plants with a sprayer. The plants were cultured for 3 weeks in the greenhouse.

[2] = tested on: Chenopodiaceae; conditions: 3000 g/ha, 3 weeks after spraying
Source text: as §1, §2, §3

[3] = tested on: Rorippa indica; conditions: 3 weeks after spraying; for weed control effect (activity level, fresh weight growth inhibition rate), Rorippa indica: 3000 g/ha
Source text: as §1, §2, §3

[4] = tested on: Veronica polita; conditions: 3 weeks after spraying; for weed control effect (activity level, fresh weight growth inhibition rate), Veronica polita: 3000 g/ha
Source text: as §1, §2, §3

Cn1ncc(C2CC2)c1-c1nnc(Cl)cc1O [Compound 82]
weed control effect (activity level, fresh weight growth inhibition rate), Amaranthus retroflexus [1]: 10 (Level 10: completely dead)
weed control effect (activity level, fresh weight growth inhibition rate), Chenopodiaceae [2]: 10 (Level 10: completely dead)
weed control effect (activity level, fresh weight growth inhibition rate), Rorippa indica [3]: 10 (Level 10: completely dead)
weed control effect (activity level, fresh weight growth inhibition rate), Veronica polita [4]: 10 (Level 10: completely dead)

Cn1ncc(C(F)(F)F)c1-c1nnc(Br)cc1O [Compound 95]
weed control effect (activity level, fresh weight growth inhibition rate), Amaranthus retroflexus [1]: 10 (Level 10: completely dead)
weed control effect (activity level, fresh weight growth inhibition rate), Chenopodiaceae [2]: 10 (Level 10: completely dead)
weed control effect (activity level, fresh weight growth inhibition rate), Rorippa indica [3]: 10 (Level 10: completely dead)
weed control effect (activity level, fresh weight growth inhibition rate), Veronica polita [4]: 10 (Level 10: completely dead)

Cn1nc(C2CC2)cc1-c1nnc(Cl)cc1O [Compound 61]
weed control effect (activity level, fresh weight growth inhibition rate), Amaranthus retroflexus [1]: 10 (Level 10: completely dead)
weed control effect (activity level, fresh weight growth inhibition rate), Chenopodiaceae [2]: 10 (Level 10: completely dead)
weed control effect (activity level, fresh weight growth inhibition rate), Rorippa indica [3]: 10 (Level 10: completely dead)
weed control effect (activity level, fresh weight growth inhibition rate), Veronica polita [4]: 10 (Level 10: completely dead)

CC(=O)n1nccc1-c1nnc(Cl)cc1O [Compound 130]
weed control effect (activity level, fresh weight growth inhibition rate), Amaranthus retroflexus [1]: 10 (Level 10: completely dead)
weed control effect (activity level, fresh weight growth inhibition rate), Chenopodiaceae [2]: 10 (Level 10: completely dead)
weed control effect (activity level, fresh weight growth inhibition rate), Rorippa indica [3]: 10 (Level 10: completely dead)
weed control effect (activity level, fresh weight growth inhibition rate), Veronica polita [4]: 10 (Level 10: completely dead)

Cn1ncc(I)c1-c1nnc(Cl)cc1O [Compound 79]
weed control effect (activity level, fresh weight growth inhibition rate), Amaranthus retroflexus [1]: 10 (Level 10: completely dead)
weed control effect (activity level, fresh weight growth inhibition rate), Chenopodiaceae [2]: 10 (Level 10: completely dead)
weed control effect (activity level, fresh weight growth inhibition rate), Rorippa indica [3]: 10 (Level 10: completely dead)
weed control effect (activity level, fresh weight growth inhibition rate), Veronica polita [4]: 10 (Level 10: completely dead)

Cn1cncc1-c1nnc(Cl)cc1O [Compound 4]
weed control effect (activity level, fresh weight growth inhibition rate), Amaranthus retroflexus [1]: 10 (Level 10: completely dead)
weed control effect (activity level, fresh weight growth inhibition rate), Chenopodiaceae [2]: 10 (Level 10: completely dead)
weed control effect (activity level, fresh weight growth inhibition rate), Rorippa indica [3]: 10 (Level 10: completely dead)
weed control effect (activity level, fresh weight growth inhibition rate), Veronica polita [4]: 10 (Level 10: completely dead)

Cn1nc(C2CC2)cc1-c1nnc(C(F)(F)C(F)(F)F)cc1O [Compound 45]
weed control effect (activity level, fresh weight growth inhibition rate), Amaranthus retroflexus [1]: 10 (Level 10: completely dead)
weed control effect (activity level, fresh weight growth inhibition rate), Chenopodiaceae [2]: 10 (Level 10: completely dead)
weed control effect (activity level, fresh weight growth inhibition rate), Rorippa indica [3]: 10 (Level 10: completely dead)
weed control effect (activity level, fresh weight growth inhibition rate), Veronica polita [4]: 10 (Level 10: completely dead)

Cn1nc(C#N)cc1-c1nnc(Cl)cc1O [Compound 71]
weed control effect (activity level, fresh weight growth inhibition rate), Amaranthus retroflexus [1]: 10 (Level 10: completely dead)
weed control effect (activity level, fresh weight growth inhibition rate), Chenopodiaceae [2]: 10 (Level 10: completely dead)
weed control effect (activity level, fresh weight growth inhibition rate), Rorippa indica [3]: 10 (Level 10: completely dead)
weed control effect (activity level, fresh weight growth inhibition rate), Veronica polita [4]: 10 (Level 10: completely dead)

Cc1cnn(C)c1-c1nnc(Cl)cc1O [Compound 80]
weed control effect (activity level, fresh weight growth inhibition rate), Amaranthus retroflexus [1]: 10 (Level 10: completely dead)
weed control effect (activity level, fresh weight growth inhibition rate), Chenopodiaceae [2]: 10 (Level 10: completely dead)
weed control effect (activity level, fresh weight growth inhibition rate), Rorippa indica [3]: 10 (Level 10: completely dead)
weed control effect (activity level, fresh weight growth inhibition rate), Veronica polita [4]: 10 (Level 10: completely dead)

Cn1nc(F)cc1-c1nnc(Cl)cc1O [Compound 56]
weed control effect (activity level, fresh weight growth inhibition rate), Amaranthus retroflexus [1]: 10 (Level 10: completely dead)
weed control effect (activity level, fresh weight growth inhibition rate), Chenopodiaceae [2]: 10 (Level 10: completely dead)
weed control effect (activity level, fresh weight growth inhibition rate), Rorippa indica [3]: 10 (Level 10: completely dead)
weed control effect (activity level, fresh weight growth inhibition rate), Veronica polita [4]: 10 (Level 10: completely dead)

CCn1nc(C2CC2)cc1-c1nnc(Cl)cc1O [Compound 44]
weed control effect (activity level, fresh weight growth inhibition rate), Amaranthus retroflexus [1]: 10 (Level 10: completely dead)
weed control effect (activity level, fresh weight growth inhibition rate), Chenopodiaceae [2]: 10 (Level 10: completely dead)
weed control effect (activity level, fresh weight growth inhibition rate), Rorippa indica [3]: 10 (Level 10: completely dead)
weed control effect (activity level, fresh weight growth inhibition rate), Veronica polita [4]: 10 (Level 10: completely dead)

Oc1cc(Cl)nnc1-c1ccnn1Cc1ccccc1 [Compound 54]
weed control effect (activity level, fresh weight growth inhibition rate), Amaranthus retroflexus [1]: 10 (Level 10: completely dead)
weed control effect (activity level, fresh weight growth inhibition rate), Chenopodiaceae [2]: 10 (Level 10: completely dead)
weed control effect (activity level, fresh weight growth inhibition rate), Rorippa indica [3]: 10 (Level 10: completely dead)
weed control effect (activity level, fresh weight growth inhibition rate), Veronica polita [4]: 10 (Level 10: completely dead)

Cn1ncc(Br)c1-c1nnc(Cl)cc1O [Compound 78]
weed control effect (activity level, fresh weight growth inhibition rate), Amaranthus retroflexus [1]: 10 (Level 10: completely dead)
weed control effect (activity level, fresh weight growth inhibition rate), Chenopodiaceae [2]: 10 (Level 10: completely dead)
weed control effect (activity level, fresh weight growth inhibition rate), Rorippa indica [3]: 10 (Level 10: completely dead)
weed control effect (activity level, fresh weight growth inhibition rate), Veronica polita [4]: 10 (Level 10: completely dead)

Cc1ccc(-c2nnc(Cl)cc2O)s1 [Compound 27]
weed control effect (activity level, fresh weight growth inhibition rate), Amaranthus retroflexus [1]: 10 (Level 10: completely dead)
weed control effect (activity level, fresh weight growth inhibition rate), Chenopodiaceae [2]: 10 (Level 10: completely dead)
weed control effect (activity level, fresh weight growth inhibition rate), Rorippa indica [3]: 10 (Level 10: completely dead)
weed control effect (activity level, fresh weight growth inhibition rate), Veronica polita [4]: 10 (Level 10: completely dead)

Cn1nc([N+](=O)[O-])cc1-c1nnc(Cl)cc1O [Compound 72]
weed control effect (activity level, fresh weight growth inhibition rate), Amaranthus retroflexus [1]: 10 (Level 10: completely dead)
weed control effect (activity level, fresh weight growth inhibition rate), Chenopodiaceae [2]: 10 (Level 10: completely dead)
weed control effect (activity level, fresh weight growth inhibition rate), Rorippa indica [3]: 10 (Level 10: completely dead)
weed control effect (activity level, fresh weight growth inhibition rate), Veronica polita [4]: 10 (Level 10: completely dead)

Cn1nc(CC(F)(F)F)cc1-c1nnc(Cl)cc1O [Compound 75]
weed control effect (activity level, fresh weight growth inhibition rate), Amaranthus retroflexus [1]: 10 (Level 10: completely dead)
weed control effect (activity level, fresh weight growth inhibition rate), Chenopodiaceae [2]: 10 (Level 10: completely dead)
weed control effect (activity level, fresh weight growth inhibition rate), Rorippa indica [3]: 10 (Level 10: completely dead)
weed control effect (activity level, fresh weight growth inhibition rate), Veronica polita [4]: 10 (Level 10: completely dead)

Cn1ncc(F)c1-c1nnc(Cl)cc1O [Compound 76]
weed control effect (activity level, fresh weight growth inhibition rate), Amaranthus retroflexus [1]: 10 (Level 10: completely dead)
weed control effect (activity level, fresh weight growth inhibition rate), Chenopodiaceae [2]: 10 (Level 10: completely dead)
weed control effect (activity level, fresh weight growth inhibition rate), Rorippa indica [3]: 10 (Level 10: completely dead)
weed control effect (activity level, fresh weight growth inhibition rate), Veronica polita [4]: 10 (Level 10: completely dead)

Cn1nc(Cl)cc1-c1nnc(Cl)cc1O [Compound 48]
weed control effect (activity level, fresh weight growth inhibition rate), Amaranthus retroflexus [1]: 10 (Level 10: completely dead)
weed control effect (activity level, fresh weight growth inhibition rate), Chenopodiaceae [2]: 10 (Level 10: completely dead)
weed control effect (activity level, fresh weight growth inhibition rate), Rorippa indica [3]: 10 (Level 10: completely dead)
weed control effect (activity level, fresh weight growth inhibition rate), Veronica polita [4]: 10 (Level 10: completely dead)

CCc1cnn(C)c1-c1nnc(Cl)cc1O [Compound 81]
weed control effect (activity level, fresh weight growth inhibition rate), Amaranthus retroflexus [1]: 10 (Level 10: completely dead)
weed control effect (activity level, fresh weight growth inhibition rate), Chenopodiaceae [2]: 10 (Level 10: completely dead)
weed control effect (activity level, fresh weight growth inhibition rate), Rorippa indica [3]: 10 (Level 10: completely dead)
weed control effect (activity level, fresh weight growth inhibition rate), Veronica polita [4]: 10 (Level 10: completely dead)

Cn1ncc(Cl)c1-c1nnc(Cl)cc1O [Compound 77]
weed control effect (activity level, fresh weight growth inhibition rate), Amaranthus retroflexus [1]: 10 (Level 10: completely dead)
weed control effect (activity level, fresh weight growth inhibition rate), Chenopodiaceae [2]: 10 (Level 10: completely dead)
weed control effect (activity level, fresh weight growth inhibition rate), Rorippa indica [3]: 10 (Level 10: completely dead)
weed control effect (activity level, fresh weight growth inhibition rate), Veronica polita [4]: 10 (Level 10: completely dead)

Cn1ccnc1-c1nnc(Cl)cc1O [Compound 3]
weed control effect (activity level, fresh weight growth inhibition rate), Amaranthus retroflexus [1]: 10 (Level 10: completely dead)
weed control effect (activity level, fresh weight growth inhibition rate), Chenopodiaceae [2]: 10 (Level 10: completely dead)
weed control effect (activity level, fresh weight growth inhibition rate), Rorippa indica [3]: 10 (Level 10: completely dead)
weed control effect (activity level, fresh weight growth inhibition rate), Veronica polita [4]: 10 (Level 10: completely dead)

N#Cc1ccc(-c2nnc(Cl)cc2O)s1 [Compound 33]
weed control effect (activity level, fresh weight growth inhibition rate), Amaranthus retroflexus [1]: 10 (Level 10: completely dead)
weed control effect (activity level, fresh weight growth inhibition rate), Chenopodiaceae [2]: 10 (Level 10: completely dead)
weed control effect (activity level), Rorippa indica, comparison experiment ([3]; 300 g/ha): 10
weed control effect (activity level, fresh weight growth inhibition rate), Rorippa indica [3]: 10 (Level 10: completely dead)
weed control effect (activity level), Veronica polita, comparison experiment ([4]; 300 g/ha): 10
weed control effect (activity level, fresh weight growth inhibition rate), Veronica polita [4]: 10 (Level 10: completely dead)

Source: patent US12024500B2, “Five-membered ring-substituted pyridazinol compounds and derivatives, preparation methods, herbicidal compositions and applications thereof” (Qingdao Kingagroot Chemical Compound Co., Ltd., priority 2018, dated 2024)
